From patent US12318364B2, “Isoflavonoid compositions and methods for the treatment of cancer” (Aardvark Therapeutics, Inc., priority 2010, dated 2025)
Values after ≈ are worked out from the molar mass of the structure shown.

Assay: Solubility limit of compound d-4 in aqueous Captisol (SBE7-β-CD) solution
Type: physicochemical
Settings: at 25° C., 20% Captisol® in water

solubility limit: 27.9 mg/mL (≈ 83.4 mM)
SMILES: Oc1ccc([C@H]2c3ccc(O)cc3OC[C@H]2c2ccc(O)cc2)cc1 (relative stereo) [Compound d-4, d-cis-3-(4-hydroxyphenyl)-4-(4-hydroxyphenyl)chroman-7-ol]
